Among the data in PubChem BioAssay (NCI) are GI50 and TGI values, retold here.

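Compound exposure: 48 hours, 5 concentrations, 96-well plates. At the GI50, growth is halved. The concentration for full growth arrest is given as TGI.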

Test systems include M14 melanoma; SF-295 CNS; SR leukemia; EKVX NSCLC; SN12C renal; CCRF-CEM leukemia; HCT-15 colon; SF-539 CNS; SF-268 CNS; NCI-H460 lung.
Holding throughout (test): NCI tumour cell line growth inhibition, 48 h

Turning to `C=C1CC[C@@H]2[C@](C)(COC(C)=O)[C@@H](O)CC[C@@]2(C)[C@@H]1COc1ccc2ccc(=O)oc2c1`, the GI50 in the test on M14 melanoma is over 100000 nM; in the test on SF-295 CNS, 25900 nM; in the test with SR leukemia, 87400 nM; in the test on EKVX NSCLC it was over 100 µM; with SN12C renal it was over 100 µM; with CCRF-CEM leukemia, over 100000 nM. Also, the GI50 is over 100000 nM in the test with HCT-15 colon, 53300 nM with SF-539 CNS, over 100 µM in the test with SF-268 CNS and over 100000 nM in the test with NCI-H460 lung. For the same molecule, the TGI was over 100 µM in the test on M14 melanoma; 79.1 µM with SF-295 CNS; over 100 µM with SR leukemia; over 100 µM with EKVX NSCLC; over 100 µM in the test on SN12C renal; over 100 µM with CCRF-CEM leukemia. For the same molecule, the TGI in the test on HCT-15 colon, in the test with SF-539 CNS, in the test on SF-268 CNS and in the test with NCI-H460 lung was over 100 µM each time.

As to `COc1ccc(-c2n[nH]nc2-c2cc(OC)c3c(c2OC)OCO3)cc1`, the GI50 is 433 nM in the test with M14 melanoma; 658 nM in the test on SF-295 CNS; 299 nM with SR leukemia; 2.8 µM in the test with EKVX NSCLC; 4.86 µM with SN12C renal; 565 nM in the test with CCRF-CEM leukemia. Also, the GI50 in the test on HCT-15 colon is 546 nM; with SF-539 CNS, 1320 nM; in the test with SF-268 CNS it was 2.98 µM; in the test with NCI-H460 lung it was 409 nM. Also, the TGI in the test on M14 melanoma is 19.5 µM; in the test on SF-295 CNS, 5.67 µM; in the test with SR leukemia, 22.6 µM; with EKVX NSCLC it was 39.7 µM; in the test on SN12C renal, 83.7 µM; with CCRF-CEM leukemia, over 100 µM. Moreover, the TGI is over 100 µM in the test on HCT-15 colon, 5.4 µM in the test on SF-539 CNS, 54.3 µM with SF-268 CNS and 15.9 µM with NCI-H460 lung.

With `COc1ccc(-c2cc(-c3ccccc3)nc(SCCCC(=O)NO)n2)cc1`, the GI50 with M14 melanoma was 894 nM; in the test with SF-295 CNS, 826 nM; in the test with SR leukemia, 363 nM; in the test with EKVX NSCLC, 1.66 µM; in the test on SN12C renal, 1.61 µM; with CCRF-CEM leukemia, 387 nM. Also, the GI50 in the test with HCT-15 colon was 387 nM; in the test on SF-539 CNS it was 1470 nM; with SF-268 CNS, 1.66 µM; with NCI-H460 lung, 468 nM. Besides, the TGI is 3.92 µM in the test with M14 melanoma; 2.54 µM in the test on SF-295 CNS; over 33.3 µM in the test on SR leukemia; 8.07 µM in the test on EKVX NSCLC; 8 µM with SN12C renal; 13.5 µM in the test on CCRF-CEM leukemia. Further, the TGI with HCT-15 colon amounted to 3.34 µM; with SF-539 CNS, 4.32 µM; with SF-268 CNS it was 5.16 µM; in the test with NCI-H460 lung it was 5.65 µM.

Take `COC1CC(OS(=O)(=O)c2ccc(C)cc2)C(OC(=O)c2ccccc2)C(C)O1` (configuration not stated): the GI50 was over 100000 nM with M14 melanoma; over 100 µM in the test with EKVX NSCLC; over 100 µM with SN12C renal; over 100000 nM with CCRF-CEM leukemia; over 100000 nM in the test with HCT-15 colon; over 100000 nM in the test with SF-539 CNS. In the test with NCI-H460 lung, the GI50 was over 100000 nM. Further, the TGI is over 100 µM with M14 melanoma; over 100 µM in the test with SF-295 CNS; over 10 µM in the test with SR leukemia; over 100 µM in the test on EKVX NSCLC; over 100 µM with SN12C renal; over 100 µM in the test with CCRF-CEM leukemia. The TGI in the test on HCT-15 colon, in the test on SF-539 CNS, with SF-268 CNS and in the test on NCI-H460 lung was over 100 µM each time.

For the molecule `CNC(=O)OCc1c(COC(=O)NC)c(C)n(-c2ccc(Br)cc2)c1C`, the TGI in the test with M14 melanoma was 32.5 µM; with SF-295 CNS it was 31.9 µM; in the test on SR leukemia, over 100 µM; with EKVX NSCLC, over 100 µM; in the test on SN12C renal it was 32.8 µM; in the test with CCRF-CEM leukemia, 48.2 µM. For the same molecule, the TGI stood at 29.1 µM in the test on HCT-15 colon, 30.3 µM in the test with SF-539 CNS, 34.5 µM in the test with SF-268 CNS and 24.1 µM in the test on NCI-H460 lung.

With `COC(=O)C(Cc1ccccc1)NC(=O)NC(=O)NC(=O)CI` (configuration not stated), the GI50 with M14 melanoma is 2510 nM; in the test on SF-295 CNS it was 16400 nM; in the test with SR leukemia, 1200 nM; in the test with EKVX NSCLC, 11.9 µM; with SN12C renal, 20.3 µM; in the test with CCRF-CEM leukemia it was 1140 nM. Besides, the GI50 is 1660 nM in the test with HCT-15 colon, 11800 nM in the test with SF-539 CNS, 14.1 µM with SF-268 CNS and 22600 nM in the test on NCI-H460 lung. Moreover, the TGI with M14 melanoma was 7.45 µM; in the test with SF-295 CNS, 31.2 µM; with SR leukemia, 3.67 µM; with EKVX NSCLC, 25.3 µM; in the test with SN12C renal, 53.3 µM; with CCRF-CEM leukemia it was 3.81 µM. The TGI stood at 3.13 µM with HCT-15 colon, 24.9 µM in the test with SF-539 CNS, 30.4 µM with SF-268 CNS and 50.1 µM in the test with NCI-H460 lung.

On to `CC1=C(CCC(C)N(C)Cc2ccc(OCCCN3CCCC3)cc2)C(C)(C)CCC1` (configuration not stated), for which the GI50 with M14 melanoma is 1750 nM; in the test with SF-295 CNS, 1890 nM; with SR leukemia it was 744 nM; in the test on EKVX NSCLC it was 9.07 µM; with SN12C renal, 11 µM; with CCRF-CEM leukemia, 2660 nM. Also, the GI50 is 1420 nM in the test on HCT-15 colon, 1660 nM in the test on SF-539 CNS, 4.07 µM in the test with SF-268 CNS and 3020 nM in the test with NCI-H460 lung. The TGI came out at 3.7 µM in the test with M14 melanoma; 4.09 µM with SF-295 CNS; 3.89 µM in the test with SR leukemia; 23.2 µM in the test on EKVX NSCLC; 24.8 µM in the test with SN12C renal; 11.6 µM with CCRF-CEM leukemia. For the same molecule, the TGI in the test on HCT-15 colon is 4.8 µM; in the test on SF-539 CNS, 3.28 µM; in the test with SF-268 CNS, 17.5 µM; in the test on NCI-H460 lung, 8.81 µM.

With `CCN=C1C=CC(=C(c2ccc(N)cc2)c2ccc(N(CC)CC)c(C)c2)C=C1`, the GI50 was 349 nM with M14 melanoma; 223 nM with SF-295 CNS; 313 nM with SR leukemia; 0.266 µM with EKVX NSCLC; 0.201 µM with SN12C renal; 306 nM with CCRF-CEM leukemia. Further, the GI50 in the test on HCT-15 colon was 917 nM; in the test with SF-539 CNS it was 340 nM; in the test on SF-268 CNS, 0.407 µM; in the test with NCI-H460 lung, 287 nM. In addition, the TGI in the test with M14 melanoma was found to be 1.77 µM; in the test on SF-295 CNS, 0.745 µM; in the test with SR leukemia, 1.24 µM; in the test on EKVX NSCLC it was 11.1 µM; in the test with SN12C renal it was 1.15 µM; in the test with CCRF-CEM leukemia, 5.35 µM. For the same molecule, the TGI is 4.77 µM with HCT-15 colon, 1.36 µM in the test with SF-539 CNS, 2.09 µM with SF-268 CNS and 1.18 µM in the test with NCI-H460 lung.

Consider `N#C/C(=C\c1c(-c2ccccc2)[nH]c2ccccc12)S(=O)(=O)c1ccccc1`, for which the GI50 in the test on M14 melanoma was 2660 nM; in the test with SF-295 CNS it was 2210 nM; in the test with SR leukemia, 17300 nM; with EKVX NSCLC it was 5.49 µM; in the test with SN12C renal, 5.24 µM; with CCRF-CEM leukemia, 2380 nM. The GI50 in the test with HCT-15 colon is 1070 nM; with SF-539 CNS, 2480 nM; in the test with SF-268 CNS, 3.4 µM; with NCI-H460 lung it was 2730 nM. The TGI in the test with M14 melanoma was 38.2 µM; in the test on SF-295 CNS, 14.6 µM; in the test with SR leukemia, over 100 µM; in the test with EKVX NSCLC it was over 64.8 µM; in the test on SN12C renal, 71.8 µM; with CCRF-CEM leukemia, 18.4 µM. The TGI in the test with HCT-15 colon is 34.6 µM; with SF-539 CNS it was 9.51 µM; in the test on SF-268 CNS, 20.5 µM; in the test with NCI-H460 lung, 18.3 µM.

As to `N=C(N)c1ccc(N2CCCN(c3ccc(C(=N)N)cc3)CC2)cc1`, the GI50 was over 100000 nM with M14 melanoma; 32600 nM in the test on SF-295 CNS; over 100000 nM with SR leukemia; 42.4 µM with EKVX NSCLC; 66.6 µM with SN12C renal; over 100000 nM in the test on CCRF-CEM leukemia. In addition, the GI50 with HCT-15 colon was 65300 nM; in the test with SF-539 CNS, 41500 nM; with SF-268 CNS, 57.7 µM; in the test on NCI-H460 lung, 50600 nM. In addition, the TGI in the test with M14 melanoma, in the test on SF-295 CNS, in the test on SR leukemia, in the test with EKVX NSCLC, in the test with SN12C renal and with CCRF-CEM leukemia was over 100 µM throughout. The TGI with HCT-15 colon, in the test with SF-539 CNS, in the test on SF-268 CNS and with NCI-H460 lung was over 100 µM throughout.
